Experimental data published in patent publication US6121269A, “Reduction of hair growth” (priority 1999, dated 2000).
Where two headings read alike, the source gives them in different places.

Columns and labels:
human hair follicles = assay: Human Hair Follicle Growth Assay; format: cell-based
Method: Human hair follicles in growth phase (anagen) were isolated from face-lift tissue under a dissecting scope using a scalpel and watchmakers forceps. The skin was sliced into thin strips exposing 2-3 rows of follicles that could readily be dissected. […] Hair follicles were videorecorded in the 24-well plates under the dissecting scope under a power of 20×. Hair follicle lengths were assessed using an image analysis software system (Computer Eyes and NIH Image). Typically, initial recordings were made on day 0 (day follicles were placed in culture), and on days 1, 4, and 7.
The effect of five protein-tyrosine kinase inhibitors on human hair follicle growth was determined by exposing the isolated follicles to the enzyme inhibitors. The hair follicle lengths were determined before and after the inhibitor treatment.
In another experiment isolated hair follicles were exposed to either 1 mM or 0.01 mM concentration of the protein-tyrosine kinase inhibitor erbstatin, and the hair growth rate was compared to control. Measurements were made at days 0, 1 and 4.

protein-tyrosine kinase = assay: Protein-Tyrosine Kinase Assay (human skin/hair follicle extract, Calbiochem kit); format: biochemical; settings: inhibitor 1 mM, human skin supernatant fraction
Method: Protein-tyrosine kinase activity was measured in human skin samples rich in hair follicles using a commercially available assay kit (Calbiochem). Human skin obtained from a local plastic surgeon as a by-product of face-lift procedures was homogenized in four volumes of the extraction buffer containing 20 mM Tris-HCL, pH7.4, 50 mM NaCl, 1 mM EDTA, 1 mM EGTA, 5 mM mercaptoethanol. The samples were centrifuged for 10 min at 16,000×g to remove the membrane/organelle fractions. The supernatant fraction was used for the tyrosine kinase assay. Adding 25 ml of the 20× concentrated solution to 475 ml of deionized water and mixing made a working solution of plate wash buffer. The kinase buffer was prepared by adding 50 ul/ml of the 2 mM ATP stock solution to 1× sample buffer without 2-mercatoethanol. (90 ul of the kinase buffer/well).For the enzyme assay, 10 ul of each sample was added to a well. 10 ul of Abl standard, as positive controls, were added to a well. The kinase reaction was started by adding 90 ul of 1× kinase buffer/well and incubated at room temp for 30 minutes. The contents of each well was washed six times with 1× wash buffer, 100 ul of PY20 antibody diluted 1:200 with 1× Sample/kinase reaction buffer (without ATP) (15 ul to 3 ml) were added and the combination incubated for 30 minutes. The test solutions were washed with wash buffer, and 100 ul of substrate solution were added to each and incubated in the dark for 6 minutes. 100 ul of stop solution were added, and the UV absorbance read at 450 nm. The increase in UV absorbance at 450 nm provided a measure of the enzyme activity.
The ability of protein-tyrosine kinase inhibitors to inhibit the skin/hair follicle enzyme activity was determined by measuring protein-tyrosine kinase activity in the presence and absence of the inhibitor. For enzyme inhibition studies, the inhibitor was added to the reaction mixture at a concentration of 1 mM following addition of the enzyme sample.

[1] = isolated human follicles, inhibitor 500 μM
[2] = isolated human follicles, inhibitor 500 μM, vs control
[3] = isolated human follicles, inhibitor 50 μM
[4] = isolated human follicles, inhibitor 250 μM

O=CN/C=C/c1cc(O)ccc1O [Erbstatin, erbstatin]
Posttreatment (Day-1) Growth (human hair follicles; 0.01 mM): 0.1 mm
Posttreatment (Day-1) Length (human hair follicles; 0.01 mM): 3.1 ± .20 mm
Posttreatment (Day-4) Growth (human hair follicles; 0.01 mM): 0.8 mm
Posttreatment (Day-4) Length (human hair follicles; 0.01 mM): 3.8 ± .29 mm
Posttreatment (Day-1) Growth (human hair follicles; 1 mM): 0.0 mm
Posttreatment (Day-1) Length (human hair follicles; 1 mM): 3.0 ± .17 mm
Posttreatment (Day-4) Growth (human hair follicles; 1 mM): 0.3 mm
Posttreatment (Day-4) Length (human hair follicles; 1 mM): 3.3 ± .15 mm
inhibition at 10 µM (human hair follicles; Homo sapiens, 24 h, 0.01 mM, day 1, vs control, read-out: Posttreatment (Day-1) Inhibition): 83%
inhibition at 1000 µM (human hair follicles; Homo sapiens, 24 h, 1 mM, day 1, vs control, read-out: Posttreatment (Day-1) Inhibition): 100%
inhibition at 10 µM (human hair follicles; Homo sapiens, 96 h, 0.01 mM, day 4, vs control, read-out: Posttreatment (Day-4) Inhibition): 11%
inhibition at 1000 µM (human hair follicles; Homo sapiens, 96 h, 1 mM, day 4, vs control, read-out: Posttreatment (Day-4) Inhibition): 67%
Hair Growth (human hair follicles; [1]): 0.3 mm
Post-treatment hair follicle length (human hair follicles; [1]): 3.9 ± .10 mm
inhibition at 500 µM (human hair follicles; [2]): 73%

N#CC(=Cc1ccc(O)cc1)C(N)=C(C#N)C#N [Tryphostin A48, 2-amino-4-(4'-hydroxyphenyl)-1,1,3-tricyanobuta-1,3-diene]
Hair Growth (human hair follicles; [1]): 0.1 mm
Post-treatment hair follicle length (human hair follicles; [1]): 3.3 ± .16 mm
inhibition at 500 µM (human hair follicles; [2]): 91%

N-acetyl-Asp-Tyr-(2-malonyl)-Val-Pro-Met-Leu-NH2
% Inhibition (protein-tyrosine kinase activity) (protein-tyrosine kinase): 83%

O=C(O)c1cc(N(Cc2ccccc2O)Cc2cc(O)ccc2O)ccc1O [Lavendustin A, lavendustin A]
Hair Growth (human hair follicles; [3]): 0 mm
Post-treatment hair follicle length (human hair follicles; [3]): 3.5 ± .12 mm
inhibition at 50 µM (human hair follicles; isolated human follicles, inhibitor 50 μM, vs control): 100%
% Inhibition (protein-tyrosine kinase activity) (protein-tyrosine kinase): 59%

COc1cc2ncnc(Nc3cccc(Cl)c3)c2cc1OC [Tryphostin AG 1478, 4-(3-Chloroanilino)-6,7-dimethoxyquinazoline]
inhibition at 250 µM (human hair follicles; Homo sapiens, read-out: % Inhibition (hair growth)): 40%
Hair Growth (human hair follicles; [4]): 0.6 mm
Post-treatment hair follicle length (human hair follicles; [4]): 3.8 ± .19 mm

CO[C@H]1[C@@H](OC)C[C@H](C)[C@@H](OC)C2=CC(=O)C=C(NC(=O)/C(C)=C/C=C\[C@H](OC)[C@@H](OC(N)=O)/C(C)=C/[C@@H]1C)C2=O [Herbimycin, herbimycin A]
% Inhibition (protein-tyrosine kinase activity) (protein-tyrosine kinase): 37%

COC(=O)/C=C/c1ccc(O)c(O)c1 [methyl caffeate]
Hair Growth (human hair follicles; [1]): 0.6 mm
Post-treatment hair follicle length (human hair follicles; [1]): 4.1 ± .17 mm
inhibition at 500 µM (human hair follicles; [2]): 40%
% Inhibition (protein-tyrosine kinase activity) (protein-tyrosine kinase): 100%

N#CC(=Cc1ccc(O)c(O)c1)C(N)=S [Tryphostin A47, α-cyano-(3,4-dihydroxy)thiocinnamide]
% Inhibition (protein-tyrosine kinase activity) (protein-tyrosine kinase): 16%

CC(=O)OCOC(c1ccc2ccccc2c1)P(=O)(OCOC(C)=O)OCOC(C)=O (stereo not drawn) [HNMPA(AM)3, hydroxy-2-naphthalenylmethylphosphonic acid tris acetoxymethyl ester]
% Inhibition (protein-tyrosine kinase activity) (protein-tyrosine kinase): 66%
